The subject of one series is HCT-116. The series is described as follows: Antiproliferative activity against human HCT116 cells assessed as reduction in cell viability incubated for 72 hrs by MTT assay. The series is classed as functional, cell-based. The settings on record: HCT-116, 72 h. (In general: Tetrazolium assays rely on reduction of a dye to a coloured formazan, in cell work by metabolically active cells.)

In series [1] the target is T1, Glutaminase kidney isoform, mitochondrial (Homo sapiens, UniProt O94925).
T1 sequence (O94925 whole entry): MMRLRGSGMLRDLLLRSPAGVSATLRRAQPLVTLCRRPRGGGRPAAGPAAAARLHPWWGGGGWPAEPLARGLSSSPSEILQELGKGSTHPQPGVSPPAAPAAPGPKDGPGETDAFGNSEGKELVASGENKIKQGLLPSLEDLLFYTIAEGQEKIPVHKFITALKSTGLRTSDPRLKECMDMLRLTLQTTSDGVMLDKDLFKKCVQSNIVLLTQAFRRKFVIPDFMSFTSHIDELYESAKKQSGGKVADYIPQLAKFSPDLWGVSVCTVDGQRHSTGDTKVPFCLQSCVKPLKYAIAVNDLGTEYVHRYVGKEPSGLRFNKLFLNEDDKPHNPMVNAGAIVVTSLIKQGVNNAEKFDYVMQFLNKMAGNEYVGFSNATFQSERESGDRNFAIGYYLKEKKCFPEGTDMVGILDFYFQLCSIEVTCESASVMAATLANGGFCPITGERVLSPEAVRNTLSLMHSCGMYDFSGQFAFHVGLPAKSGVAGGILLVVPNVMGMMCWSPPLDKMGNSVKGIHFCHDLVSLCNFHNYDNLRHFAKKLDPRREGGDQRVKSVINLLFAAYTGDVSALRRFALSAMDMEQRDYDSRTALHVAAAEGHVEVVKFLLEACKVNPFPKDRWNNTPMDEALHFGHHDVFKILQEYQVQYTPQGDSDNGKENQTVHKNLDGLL
The series is described as follows: Inhibition of human GLS1 expressed in Escherichia coli strain BL21 (DE3)pLysS pre-incubated for 10 mins before glutamine addition and measured after 60 mins by bovine liver glutamate dehydrogenase based coupled enzyme assay.

The next series has as its system MDA-MB-436. Kind of series: Antiproliferative activity against human MDA-MB-436 cells assessed as reduction in cell viability incubated for 72 hrs by MTT assay. The series is classed as functional, cell-based. As to conditions: MDA-MB-436, 72 h; call rule not given here.
Series [2] addresses T1, Glutaminase kidney isoform, mitochondrial. The series is described as follows: Inhibition of N-[2-[(3',6'-dihydroxy-1-oxo-spiro[isobenzofuran-3,9'-xanthene]-5-yl)carbamothioylamino]ethyl]-N'-[6-[4-[5-[[2-(2-pyridyl)acetyl]amino]-1,3,4-thiadiazol-2-yl]butyl]pyridazin-3-yl]pentanediamide binding to human GLS1 expressed in Escherichia coli strain BL21 (DE3)pLysS by fluorescence polarization binding assay.

For series [3] the target is unchanged. Kind of series: (§1) Binding affinity to human GLS1 expressed in Escherichia coli strain BL21 (DE3)pLysS by SPR assay. For orientation: SPR reads the build-up and loss of mass on a sensor chip optically.
Series [4] deals with T2, Glutaminase kidney isoform, mitochondrial (Homo sapiens) (UniProt O94925).
T2 sequence (whole entry): T1 sequence (O94925 whole entry)
Description: Binding affinity to human GLS1 expressed in Escherichia coli strain BL21 (DE3)pLysS assessed as change in melting temperature by SYPRO orange dye based protein thermal shift assay

The nature of series [5]: Distribution coefficient, logD of the compound incubated for 72 hrs by LC-MS based shake-flask method. It counts as physicochemical. As to conditions: octanol/water.
The target in series [6] is T1, Glutaminase kidney isoform, mitochondrial. Kind of series: Binding affinity to human GLS1 expressed in Escherichia coli strain BL21 (DE3)pLysS by fluorescence polarization binding assay.
Series [7] deals with Serum albumin (Bos taurus) (UniProt P02769). Kind of series: Binding affinity to BSA by fluorescence polarization binding assay relative to control. As to conditions: bovine. For orientation: In fluorescence polarisation assays a small probe gives low polarisation when free and higher when bound to something large.
Serum albumin (Bos taurus), sequence (P02769 whole entry, looked up, canonical isoform): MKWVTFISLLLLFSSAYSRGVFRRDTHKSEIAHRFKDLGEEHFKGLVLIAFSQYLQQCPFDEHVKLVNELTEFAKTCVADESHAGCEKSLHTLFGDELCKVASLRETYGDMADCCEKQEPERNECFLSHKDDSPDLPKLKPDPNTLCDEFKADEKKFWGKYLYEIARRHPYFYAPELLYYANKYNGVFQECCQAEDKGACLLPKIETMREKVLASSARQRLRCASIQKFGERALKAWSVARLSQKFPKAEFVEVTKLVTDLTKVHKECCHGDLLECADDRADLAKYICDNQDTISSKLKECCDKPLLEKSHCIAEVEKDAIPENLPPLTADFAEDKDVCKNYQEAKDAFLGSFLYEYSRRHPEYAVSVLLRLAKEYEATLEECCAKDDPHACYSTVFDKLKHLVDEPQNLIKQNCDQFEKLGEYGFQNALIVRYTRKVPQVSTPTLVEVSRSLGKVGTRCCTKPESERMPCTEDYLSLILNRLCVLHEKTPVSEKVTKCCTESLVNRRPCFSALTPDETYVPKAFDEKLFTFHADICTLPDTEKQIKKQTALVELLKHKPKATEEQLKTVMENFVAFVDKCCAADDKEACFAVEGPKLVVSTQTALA
Series [8] addresses T2, Glutaminase kidney isoform, mitochondrial (Homo sapiens). The series is described as follows: Binding affinity to 1 uM human GLS1 expressed in Escherichia coli strain BL21 (DE3)pLysS by fluorescence polarization binding assay relative to control.
Series [9] shares this target. Described as §1.
Series [10] is described as follows: Ratio of intrinsic aqueous solubility of the test compound to CB839 incubated for 72 hrs by LC-MS based shake-flask method. It counts as physicochemical. The settings on record: buffer.
Series [11] is described as follows: Intrinsic aqueous solubility incubated for 72 hrs by LC-MS based shake-flask method. It counts as physicochemical. As to conditions: buffer.

This is an account of results in ChEMBL document CHEMBL4334507, “Development and Characterization of a Fluorescent Probe for GLS1 and the Application for High-Throughput Screening of Allosteric Inhibitors” (J Med Chem, 2019).

≈ marks a conversion by molar mass, not a printed value.

As for `Cc1cccc(C)c1Cn1cc(CCC(=O)Nc2nnc(CCCCc3nnc(NC(=O)Cc4ccccc4)s3)s2)nn1`, the IC50 (in general, the concentration at which inhibition is half-maximal) was determined as 740 nM in the series on HCT-116, 520 nM in series [1], 760 nM with MDA-MB-436 and 780 nM in series [2].

Turning to `O=C(CCc1cn(Cc2ccc(Cl)cc2)nn1)Nc1nnc(CCCCc2nnc(NC(=O)Cc3ccccc3)s2)s1`, the half-maximal inhibitory concentration (IC50) turned out to be 3410 nM with HCT-116, 1250 nM in [1], 1140 nM with MDA-MB-436 and 1370 nM in series [2].

Take `O=C(CCc1cn(Cc2ccc(Br)cc2)nn1)Nc1nnc(CCCCc2nnc(NC(=O)Cc3ccccc3)s2)s1`: the concentration for half-maximal inhibition (IC50) in the series with HCT-116 is 1850 nM; in series [1] it was 980 nM; in the series on MDA-MB-436 it was 4060 nM; in series [2], 1080 nM.

`Cc1ccc(Cn2cc(CCC(=O)Nc3nnc(CCCCc4nnc(NC(=O)Cc5ccccc5)s4)s3)nn2)c(C)c1`: the concentration for half-maximal inhibition (IC50) with HCT-116 is 1010 nM; in [1], 280 nM; in the series on MDA-MB-436, 430 nM; in series [2], 500 nM. For the same molecule, in [3], the Kd – broadly, the equilibrium constant for the complex coming apart – is 350 nM. Moreover, the ΔTm – broadly, the shift of the melting midpoint relative to a reference – in series [4] is 7.7 °C.

As for `Cc1cccc(C)c1Cn1cc(CCC(=O)Nc2ccc(CCCCc3nnc(NC(=O)Cc4ccccn4)s3)nn2)nn1`, the IC50 with HCT-116 came out at 270 nM; in [1], 320 nM; with MDA-MB-436, 340 nM; in series [2], 460 nM.

For the molecule `O=C(Cc1ccccc1)Nc1nnc(CCSCCc2nnc(NC(=O)Cc3ccccc3)s2)s1`, the 50% inhibitory concentration (IC50) in the series with HCT-116 was 1020 nM; in the series with MDA-MB-436 it was 2400 nM.

`COc1ccc(Cn2cc(CCC(=O)Nc3nnc(CCCCc4nnc(NC(=O)Cc5ccccc5)s4)s3)nn2)cc1OC`: the IC50 worked out at 450 nM in the series on HCT-116, 500 nM in [1], 800 nM with MDA-MB-436 and 850 nM in [2].

Turning to `O=C(CCc1cn(Cc2ccc([N+](=O)[O-])cc2)nn1)Nc1nnc(CCCCc2nnc(NC(=O)Cc3ccccc3)s2)s1`, the half-inhibitory concentration (IC50) came out at 1050 nM in the series with HCT-116, 2500 nM in [1], 10700 nM in the series on MDA-MB-436 and 2750 nM in series [2].

On to `O=C(CCc1cn(Cc2ccc(C(F)(F)F)cc2)nn1)Nc1ccc(CCCCc2nnc(NC(=O)Cc3ccccn3)s2)nn1`, for which the IC50 in the series on HCT-116 amounted to 180 nM; in series [1], 44 nM; in the series with MDA-MB-436, 210 nM; in [2], 73 nM.

Regarding `N#Cc1ccc(Cn2cc(CCC(=O)Nc3nnc(CCCCc4nnc(NC(=O)Cc5ccccc5)s4)s3)nn2)cc1`, the half-inhibitory concentration (IC50) is 5140 nM with HCT-116, 840 nM in series [1], 2950 nM in the series with MDA-MB-436 and 930 nM in series [2].

On to `COc1ccc(Cn2cc(CCC(=O)Nc3nnc(CCCCc4nnc(NC(=O)Cc5ccccc5)s4)s3)nn2)cc1`, for which the IC50 came to 560 nM in the series with HCT-116, 510 nM in series [1], 5490 nM with MDA-MB-436 and 760 nM in series [2].

For the molecule `O=C(Cc1cccc(OC(F)(F)F)c1)Nc1ccc(CCCCc2nnc(NC(=O)Cc3ccccn3)s2)nn1`, the IC50 in the series on HCT-116 was 60 nM; in the series on MDA-MB-436, 520 nM. For the same molecule, the log distribution coefficient (logD) – broadly, the decadic logarithm of the distribution of all forms, ionised or not, between an organic phase and buffer at a given pH – at 72 h in series [5] came out at 1.9.

Consider `O=C(CCc1cn(Cc2ccccc2)nn1)Nc1nnc(CCCCc2nnc(NC(=O)Cc3ccccc3)s2)s1`, for which the IC50 was found to be 4780 nM in the series with HCT-116, 900 nM in series [1], 1160 nM in the series with MDA-MB-436 and 920 nM in series [2].

Take `Cc1ccc(Cn2cc(CCC(=O)Nc3nnc(CCCCc4nnc(NC(=O)Cc5ccccc5)s4)s3)nn2)cc1`: the IC50 in the series with HCT-116 is 1570 nM; in [1] it was 420 nM; with MDA-MB-436, 1790 nM; in [2] it was 560 nM.

In the case of `COc1ccc(Cn2cc(CCC(=O)Nc3ccc(CCCCc4nnc(NC(=O)Cc5ccccn5)s4)nn3)nn2)cc1OC`, the IC50 in the series with HCT-116 came to 380 nM; in series [1], 330 nM; with MDA-MB-436, 400 nM; in series [2], 400 nM.

As to `COc1ccc(Cn2cc(CCC(=O)Nc3ccc(CCCCc4nnc(NC(=O)Cc5ccccn5)s4)nn3)nn2)cc1`, the IC50 in the series with HCT-116 is 230 nM; in series [1] it was 150 nM; in the series on MDA-MB-436 it was 630 nM; in [2], 190 nM.

As for `O=C(CCc1cn(Cc2ccc(F)cc2)nn1)Nc1nnc(CCCCc2nnc(NC(=O)Cc3ccccc3)s2)s1`, the concentration for half-maximal inhibition (IC50) stood at 1090 nM in the series with HCT-116, 1110 nM in series [1], 350 nM with MDA-MB-436 and 1220 nM in series [2].

On to `O=C(CCc1cn(Cc2ccc(OC(F)(F)F)cc2)nn1)Nc1ccc(CCCCc2nnc(NC(=O)Cc3ccccn3)s2)nn1`, for which the 50% inhibitory concentration (IC50) in the series with HCT-116 worked out at 250 nM; in series [1], 300 nM; in the series on MDA-MB-436, 310 nM; in series [2] it was 390 nM.

Take `O=C(CCCC(=O)Nc1ccc(CCCCc2nnc(NC(=O)Cc3ccccn3)s2)nn1)NCCNC(=S)Nc1ccc2c(c1)C1(OC2=O)c2ccc(O)cc2Oc2cc(O)ccc21`: the Kd amounted to 450 nM in [6] and 610 nM in [3]. Besides, the Activity result is “Not Active” in series [7] and “Dose-dependent effect” in [9]. Further, in series [8], the fold change (FC) was found to be 2.

As for `Cc1ccc(Cn2cc(CCC(=O)Nc3ccc(CCCCc4nnc(NC(=O)Cc5ccccn5)s4)nn3)nn2)c(C)c1`, the IC50 with HCT-116 was determined as 720 nM; in series [1], 110 nM; in the series with MDA-MB-436, 200 nM; in [2], 210 nM.

For `Cc1ccc(Cn2cc(CCC(=O)Nc3ccc(CCCCc4nnc(NC(=O)Cc5ccccn5)s4)nn3)nn2)cc1`, the 50% inhibitory concentration (IC50) was found to be 150 nM in the series with HCT-116, 27 nM in series [1], 180 nM in the series on MDA-MB-436 and 41 nM in [2]. The molecule also returned a logD at 72 h in series [5] of 1.29. For the same molecule, the Ratio in series [10] stood at 9. The Kd in series [3] was 68 nM. In addition, the thermodynamic solubility (commonly solubility found after equilibrating the solid with the medium) at 72 h in series [11] was 20.8 µg/mL (≈ 34.9 µM). The thermal shift (ΔTm) in series [4] was determined as 16.5 °C.
